The record followed here is US20150266857A1, “NOVEL 3-INDOL SUBSTITUTED DERIVATIVES, PHARMACEUTICAL COMPOSITIONS AND METHODS FOR USE” (iTeos Therapeutics, priority 2014, published 2015).

Counter-ions that a name gives are not always drawn.

The IC50 is the point on the concentration scale where inhibition reaches its midpoint.

In experiment [1] the target is T1, human recombinant TDO2 enzyme (Homo sapiens, UniProt P48775).
T1 construct: made in house
Put plainly: Assay for TDO2 enzymatic activity determination. The experiment is classed as biochemical. To be noted: human recombinant TDO2, L-Trp 1 mM, kynurenine absorbance at 480 nm. On the procedure:
To measure the TDO2 activity, the procedure described in Dolusic et al. J. Med. Chem.; 2011, 54, […] was adapted: the reaction mixture contained (final concentrations) potassium phosphate buffer (50 mM, pH 7.5), ascorbic acid (0.25 M), methylene blue (0.125 μM), catalase (40 units/mL, from bovine liver, Sigma), and human recombinant TDO2 enzyme (prepared as described in Dolusic et al. J. Med. Chem.; 2011, 54, 5320-5334; 0.9 μg) without or with the compounds of the present invention at the indicated concentrations (total volume 112.5 μL). The reaction was initiated by the addition of 37.5 μL of L-Trp (final concentration 1 mM) at room temperature. The reaction was conducted at room temperature during one hour and stopped by the addition of 30 μL of 30% (w/v) trichloroacetic acid.
To convert N-formylkynurenine into kynurenine, the reaction mixture was incubated at 65° C. for 30 min. Then 150 μL of the reaction mixture was mixed with 120 μL of 2.5% (w/v) 4-(dimethylamino)-benzaldehyde in acetic acid and incubated for 5 min at room temperature. Kynurenine concentrations were determined by measuring the absorbance at 480 nm. A standard curve was made with pure kynurenine. The TDO activity was measured as described above using ten serial concentrations of the compounds of the present invention. Data were fitted using the Prism™ software (GraphPad Software, Inc.) using standard parameters.

Experiment [2] deals with T2, human glioblastoma A172 cells, naturally expressing hTDO2 (Homo sapiens, UniProt P48775).
T2 construct: human glioblastoma A172 cells, naturally expressing hTDO2; endogenous in cells; host or cells: human glioblastoma A172 cells (ATCC CRL-1620)
T2 sequence (P48775 whole entry): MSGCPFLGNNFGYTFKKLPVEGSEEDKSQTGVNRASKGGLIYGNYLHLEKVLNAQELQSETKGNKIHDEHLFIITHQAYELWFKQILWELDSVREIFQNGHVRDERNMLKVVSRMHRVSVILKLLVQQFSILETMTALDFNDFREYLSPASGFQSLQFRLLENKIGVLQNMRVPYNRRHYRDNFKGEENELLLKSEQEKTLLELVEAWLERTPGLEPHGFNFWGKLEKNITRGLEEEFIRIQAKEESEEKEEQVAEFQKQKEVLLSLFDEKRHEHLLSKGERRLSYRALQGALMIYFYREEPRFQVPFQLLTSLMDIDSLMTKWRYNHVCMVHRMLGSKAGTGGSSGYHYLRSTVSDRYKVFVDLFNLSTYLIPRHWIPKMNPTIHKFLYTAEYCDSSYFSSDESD
Put plainly: Cellular assay for TDO2 activity, A172 cells. The experiment is classed as cell-based. As to conditions: overnight incubation, kynurenine in supernatant. As to the method:
The compounds of formula I inhibit the activity of human TDO2 in cells that constitutively express TDO2, such as A172 cells. A172 is a cell line derived from human brain glioblastoma cells. The cells are available from the American Type Culture Collection (ATCC®) as CRL-1620™
The assay (adapted from Pilotte L et al., Proc Natl Acad Sci USA, 2012, 109(7), 2497-502) was performed in 96-well flat bottom plates seeded with human glioblastoma A172 cells, naturally expressing hTDO2 (prepared as described in Tilman et al., Mol Cancer, 2007, 17(6), 80), at a concentration of 1.25×10^4 cells/well in a final volume of 200 μL. To determine TDO, the cells were incubated overnight at 37° C. at 5% CO2 in IMDM (Invitrogen) supplemented with 2% FBS and 2% penicillin/streptomycin in the presence of the compounds of the present invention, at different concentrations.
The plates were then centrifuged 5 min at 1000 rpm, and 100 μL of the supernatant were collected in a conical plate, 30 uL of TCA 30% were added and a further centrifugated at 3000×g for 10 minutes. 100 μL of the supernatant were collected in a flat bottomed plate and 100 μL of 2% (w/v) 4-(dimethylamino)-benzaldehyde in acetic acid and incubated for 5 min at room temperature. Kynurenine concentrations were determined by measuring the absorbance at 480 nm. A standard curve was made with pure kynurenine. The TDO activity was measured as described above using ten serial concentrations of the compounds of the present invention. Data were fitted using the Prism™ software (GraphPad Software, Inc.) using standard parameters.

T1 sequence (P48775 whole entry): as above

`NC(=O)Cn1ncc2ccc(-c3c[nH]c4cc(F)ccc34)cc21` [Compound 2, 2-(6-(6-fluoro-1H-indol-3-yl)-1H-indazol-1-yl)acetamide]: in experiment [1], the IC50 came to 0.946 µM.

As to `Fc1ccc2c(-c3ccc4cnn(CC5CCNCC5)c4c3)c[nH]c2c1` [Compound 3, 6-(6-fluoro-1H-indol-3-yl)-1-(piperidin-4-ylmethyl)-1H-indazole hydrochloride], the IC50 in experiment [1] stood at 2.12 µM.

`CC(=O)N1CCC(Cn2ncc3ccc(-c4c[nH]c5cc(F)ccc45)cc32)CC1` [Compound 4, 1-(4-((6-(6-fluoro-1H-indol-3-yl)-1H-indazol-1-yl)methyl)piperidin-1-yl)ethanone]: the IC50 in experiment [1] was found to be 3.18 µM.

As for `NC(=O)CCn1ncc2ccc(-c3c[nH]c4cc(F)ccc34)cc21` [Compound 5, 3-(6-(6-fluoro-1H-indol-3-yl)-1H-indazol-1-yl)propanamide], in experiment [1], the IC50 was determined as 1.17 µM.

Consider `Fc1ccc2c(-c3ccc4cnn(C5CCNCC5)c4c3)c[nH]c2c1` [Compound 6, 6-(6-fluoro-1H-indol-3-yl)-1-(piperidin-4-yl)-1H-indazole], for which, in experiment [1], the IC50 stood at 7.53 µM.

As to `CC(=O)N1CCC(n2ncc3ccc(-c4c[nH]c5cc(F)ccc45)cc32)CC1` [Compound 7, 1-(4-(6-(6-fluoro-1H-indol-3-yl)-1H-indazol-1-yl)piperidin-1-yl)ethanone], in experiment [1], the IC50 came out at 13.8 µM.

As for `Fc1ccc2c(-c3ccc4[nH]ncc4c3)c[nH]c2c1` [Compound 8, 5-(6-fluoro-1H-indol-3-yl)-1H-indazole], the IC50 in experiment [1] stood at 0.609 µM.

`NC(=O)Cn1ncc2cc(-c3c[nH]c4cc(F)ccc34)ccc21` [Compound 9, 2-(5-(6-fluoro-1H-indol-3-yl)-1H-indazol-1-yl)acetamide]: the IC50 in experiment [2] was determined as 0.147 µM; in experiment [1] it was 0.645 µM.

On to `Fc1ccc2c(-c3ccc4c(cnn4CC4CCNCC4)c3)c[nH]c2c1` [Compound 10, 5-(6-fluoro-1H-indol-3-yl)-1-(piperidin-4-ylmethyl)-1H-indazole], for which, in experiment [1], the 50% inhibitory concentration (IC50) is 0.427 µM.

Take `CC(=O)N1CCC(Cn2ncc3cc(-c4c[nH]c5cc(F)ccc45)ccc32)CC1` [Compound 11, 1-(4-((5-(6-fluoro-1H-indol-3-yl)-1H-indazol-1-yl)methyl)piperidin-1-yl)ethanone]: in experiment [1], the IC50 was found to be 0.68 µM.

For `NC(=O)CCn1ncc2cc(-c3c[nH]c4cc(F)ccc34)ccc21` [Compound 12, 3-(5-(6-fluoro-1H-indol-3-yl)-1H-indazol-1-yl)propanamide], the results for the IC50 in experiment [2] and in experiment [1] were 0.517 µM and 0.709 µM, respectively.

`Fc1ccc2c(-c3ccc4c(cnn4C4CCNCC4)c3)c[nH]c2c1` [Compound 13, 5-(6-fluoro-1H-indol-3-yl)-1-(piperidin-4-yl)-1H-indazole]: the IC50 in experiment [1] is 0.407 µM.

As to `CC(=O)N1CCC(n2ncc3cc(-c4c[nH]c5cc(F)ccc45)ccc32)CC1` [Compound 14, 1-(4-(5-(6-fluoro-1H-indol-3-yl)-1H-indazol-1-yl)piperidin-1-yl)ethanone], in experiment [1], the IC50 was 2.22 µM.

For the molecule `NC(=O)Cn1cc2ccc(-c3c[nH]c4cc(F)ccc34)cc2n1` [Compound 15, 2-(6-(6-fluoro-1H-indol-3-yl)-2H-indazol-2-yl)acetamide], the IC50 in experiment [1] came out at 1.16 µM.

With `CC(=O)N1CCC(Cn2cc3ccc(-c4c[nH]c5cc(F)ccc45)cc3n2)CC1` [Compound 16, 1-(4-((6-(6-fluoro-1H-indol-3-yl)-2H-indazol-2-yl)methyl)piperidin-1-yl)ethanone], the IC50 in experiment [1] was determined as 1.99 µM.

As for `NC(=O)CCn1cc2ccc(-c3c[nH]c4cc(F)ccc34)cc2n1` [Compound 17, 3-(6-(6-fluoro-1H-indol-3-yl)-2H-indazol-2-yl)propanamide], the IC50 in experiment [1] amounted to 0.935 µM.

On to `Fc1ccc2c(-c3ccc4cn(C5CCNCC5)nc4c3)c[nH]c2c1` [Compound 18, 6-(6-fluoro-1H-indol-3-yl)-2-(piperidin-4-yl)-2H-indazole], for which the IC50 in experiment [1] was determined as 0.948 µM.

Consider `CC(=O)N1CCC(n2cc3ccc(-c4c[nH]c5cc(F)ccc45)cc3n2)CC1` [Compound 19, 1-(4-(6-(6-fluoro-1H-indol-3-yl)-2H-indazol-2-yl)piperidin-1-yl)ethanone], for which the IC50 in experiment [1] stood at 2.19 µM.

`NC(=O)Cn1cc2cc(-c3c[nH]c4cc(F)ccc34)ccc2n1` [Compound 20, 2-(5-(6-fluoro-1H-indol-3-yl)-2H-indazol-2-yl)acetamide]: the figures for the IC50 in experiment [2] and in experiment [1] were 0.169 µM and 0.421 µM, respectively.

Take `CC(=O)N1CCC(Cn2cc3cc(-c4c[nH]c5cc(F)ccc45)ccc3n2)CC1` [Compound 21, 1-(4-((5-(6-fluoro-1H-indol-3-yl)-2H-indazol-2-yl)methyl)piperidin-1-yl)ethanone]: the IC50 in experiment [1] was found to be 2.67 µM.

As to `NC(=O)CCn1cc2cc(-c3c[nH]c4cc(F)ccc34)ccc2n1` [Compound 22, 3-(5-(6-fluoro-1H-indol-3-yl)-2H-indazol-2-yl)propanamide], the half-maximal inhibitory concentration (IC50) is 0.176 µM in experiment [2] and 0.539 µM in experiment [1].

Consider `Fc1ccc2c(-c3ccc4nn(C5CCNCC5)cc4c3)c[nH]c2c1` [Compound 23, 5-(6-fluoro-1H-indol-3-yl)-2-(piperidin-4-yl)-2H-indazole], for which the IC50 in experiment [1] came to 0.322 µM.

On to `CC(=O)N1CCC(n2cc3cc(-c4c[nH]c5cc(F)ccc45)ccc3n2)CC1` [Compound 24, 1-(4-(5-(6-fluoro-1H-indol-3-yl)-2H-indazol-2-yl)piperidin-1-yl)ethanone], for which the IC50 in experiment [1] came out at 0.924 µM.

As for `Fc1ccc2c(-c3ccc4[nH]cnc4c3)c[nH]c2c1` [Compound 25, 5-(6-fluoro-1H-indol-3-yl)-1H-benzo[d]imidazole], the IC50 in experiment [1] amounted to 0.188 µM.

In the case of `NC(=O)CCc1nc2cc(-c3c[nH]c4cc(F)ccc34)ccc2[nH]1` [Compound 46, 3-(5-(6-fluoro-1H-indol-3-yl)-1H-benzo[d]imidazol-2-yl)propanamide], the IC50 in experiment [1] is 1.33 µM.

`CS(=O)(=O)N1CCC(c2nc3ccc(-c4c[nH]c5cc(F)ccc45)cc3o2)CC1` [Compound 96, 6-(6-fluoro-1H-indol-3-yl)-2-(1-(methylsulfonyl)piperidin-4-yl)benzo[d]oxazole]: the IC50 in experiment [2] is 0.589 µM; in experiment [1] it was 2.39 µM.

As to `O=C1Cc2cc(-c3c[nH]c4cc(F)ccc34)ccc2N1` [Compound 97, 5-(6-fluoro-1H-indol-3-yl)indolin-2-one], the results for the IC50 in experiment [2] and in experiment [1] were 0.284 µM and 0.716 µM, respectively.

Turning to `Nc1nc2ccc(-c3c[nH]c4cc(F)ccc34)cc2o1` [Compound 98, 6-(6-fluoro-1H-indol-3-yl)benzo[d]oxazol-2-amine], the IC50 in experiment [2] is 0.293 µM; in experiment [1], 0.489 µM.

Consider `CN(C)CCS(=O)(=O)NCc1nc2ccc(-c3c[nH]c4cc(F)ccc34)cc2o1` [Compound 100, 2-(dimethylamino)-N-((6-(6-fluoro-1H-indol-3-yl)benzo[d]oxazol-2-yl)methyl)ethanesulfonamide], for which the IC50 in experiment [2] amounted to 0.345 µM; in experiment [1], 1.46 µM.

Consider `CS(=O)(=O)CCc1nc2ccc(-c3c[nH]c4cc(F)ccc34)cc2o1` [Compound 101, 6-(6-fluoro-1H-indol-3-yl)-2-(2-(methylsulfonyl)ethyl)benzo[d]oxazole], for which the IC50 in experiment [2] was 0.153 µM; in experiment [1], 1.38 µM.

For `NC(=O)NCc1nc2ccc(-c3c[nH]c4cc(F)ccc34)cc2o1` [Compound 102, 1-((6-(6-fluoro-1H-indol-3-yl)benzo[d]oxazol-2-yl)methyl)urea], the IC50 in experiment [2] is 0.261 µM; in experiment [1], 0.835 µM.
